Laboratory results reported in patent US20200085839A1, “COMBINATION OF IMMUNOTHERAPEUTICS AND BISFLUOROALKYL-1,4-BENZODIAZEPINONE COMPOUNDS FOR TREATING LYMPHOMAS” (Ayala Pharmaceuticals Inc., priority 2018, published 2020).

System: U266 cells (MM cell line)
Assay: Cell-bound BCMA by flow cytometry
Format: cell-based, human
Settings: 24 h, FIG. 1
Protocol: FIG. 1. Levels of cell-bound BCMA en multiple myelma (MM) cells Incubated with γ-secretase inhibitors (GSIs). U266 cells (MM cell line) were incubated with 0.3 nM, 0.5 nM, 1 nM or 3 nM of GSI (Compound 1, Compound 22, LY3039478 or PF3084014) for 24 hours, and BCMA levels were measured by flow cytometry.
For detecting levels of soluble and cell-bound BCMA, U266 cells (MM cell line) were seeded at 1×10^5 cells/well in a total volume of 250 μl into a 96-well plate. The cells were cultured in RPMI medium supplemented with 10% FCS. GSIs (Compound 1, Compound 22, LY3039478 (Lilly), and PF3084014 (Pfizer)) were added to U266 cell cultures at a concentration of 0.3 nM, 0.5 nM, 1 nM and 3 nM for soluble BCMA and at a concentration of […]. Following 24 hours of incubation at 37° C., the cells were collected, and BCMA levels were evaluated in both the cells (cell-bound BCMA) and the cell media (soluble BCMA). Cells were stained with an anti-BCMA antibody (PE anti-human CD269 BCMA, Biolegend). Soluble BCMA levels were analyzed by ELISA (Human BCMA/TNFRSF17 DuoSet kit: R&D Systems).

Structure (SMILES) | cell-bound BCMA levels
C[C@H](NC(=O)CCC(F)(F)F)C(=O)N[C@@H]1C(=O)N(CCO)c2ncccc2-c2ccccc21 [LY3039478, reference compound] | increased cell-bound BCMA levels
CCC[C@H](N[C@H]1CCc2cc(F)cc(F)c2C1)C(=O)Nc1cn(C(C)(C)CNCC(C)(C)C)cn1 [PF3084014, reference compound] | increased cell-bound BCMA levels
